We go through 53 molecules from patent publication US20250197382A1, “KIF18A INHIBITOR” (WIGEN BIOMEDICINE TECHNOLOGY (SHANGHAI) CO., LTD., priority 2022, published 2025).

SMILES strings stand for the structures.

Recombinant human KIF18A (1-467His-tagged) protein, sequence (Q8NI77 1-467): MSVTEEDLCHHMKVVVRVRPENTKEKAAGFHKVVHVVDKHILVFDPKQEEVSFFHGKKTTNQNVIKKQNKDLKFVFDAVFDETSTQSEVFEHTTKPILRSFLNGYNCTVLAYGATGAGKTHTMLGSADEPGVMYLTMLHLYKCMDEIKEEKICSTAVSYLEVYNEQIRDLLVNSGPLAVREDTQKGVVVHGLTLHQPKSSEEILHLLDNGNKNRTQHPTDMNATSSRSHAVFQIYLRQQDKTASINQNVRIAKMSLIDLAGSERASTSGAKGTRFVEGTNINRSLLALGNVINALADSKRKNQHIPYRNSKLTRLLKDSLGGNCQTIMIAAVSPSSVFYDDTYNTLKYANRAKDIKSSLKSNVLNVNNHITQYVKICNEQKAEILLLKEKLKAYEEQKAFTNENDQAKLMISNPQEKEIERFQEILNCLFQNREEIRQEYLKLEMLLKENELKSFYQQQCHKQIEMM
Recombinant human KIF18A (1-467His-tagged) protein, sequence (P02550 whole entry partner): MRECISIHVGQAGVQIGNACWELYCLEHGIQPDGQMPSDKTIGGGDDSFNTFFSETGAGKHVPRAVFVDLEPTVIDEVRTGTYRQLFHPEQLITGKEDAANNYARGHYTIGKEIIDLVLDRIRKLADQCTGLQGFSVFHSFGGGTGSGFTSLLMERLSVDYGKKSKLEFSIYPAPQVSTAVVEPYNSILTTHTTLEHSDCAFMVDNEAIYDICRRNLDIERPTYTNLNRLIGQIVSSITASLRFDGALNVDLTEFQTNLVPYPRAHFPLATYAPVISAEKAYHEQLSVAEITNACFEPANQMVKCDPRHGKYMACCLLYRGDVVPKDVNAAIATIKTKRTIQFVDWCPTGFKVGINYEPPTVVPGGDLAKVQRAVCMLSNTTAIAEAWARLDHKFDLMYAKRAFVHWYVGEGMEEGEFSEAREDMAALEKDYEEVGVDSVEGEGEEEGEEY
Recombinant human KIF18A (1-467His-tagged) protein, sequence (P02554 whole entry partner): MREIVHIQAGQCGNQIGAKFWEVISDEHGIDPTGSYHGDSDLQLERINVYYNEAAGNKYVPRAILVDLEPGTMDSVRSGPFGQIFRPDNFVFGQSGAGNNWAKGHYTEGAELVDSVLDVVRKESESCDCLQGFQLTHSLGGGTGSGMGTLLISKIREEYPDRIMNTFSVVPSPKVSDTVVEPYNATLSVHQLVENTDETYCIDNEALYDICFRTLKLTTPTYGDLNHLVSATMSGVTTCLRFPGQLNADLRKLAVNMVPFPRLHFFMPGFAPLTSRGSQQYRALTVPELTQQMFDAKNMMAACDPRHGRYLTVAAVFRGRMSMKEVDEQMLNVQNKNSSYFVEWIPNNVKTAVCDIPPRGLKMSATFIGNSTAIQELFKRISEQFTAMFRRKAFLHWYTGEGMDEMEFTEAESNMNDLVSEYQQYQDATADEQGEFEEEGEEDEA

This experiment concerns the target Recombinant human KIF18A (1-467His-tagged) protein (Homo sapiens (Human), UniProt Q8NI77). Nature of the experiment: KIF18A enzyme assay (microtubule-stimulated ATPase activity, ADP-Glo). It counts as biochemical. Particulars: 30 nM KIF18A, ATP 75 μM, read-out: inhibitory activity against KIF18A IC50. As to the method:
Biological Example 1. Assay for In Vitro Inhibition of Enzymatic Activity of KIF18A by Compounds of the Present Invention
KIF18A enzyme assay: The enzymatic activity of KIF18A after treatment with the compounds was measured by an assay of microtubule-stimulated ATPase activity. ADP generated from the ATPase reaction was measured in this assay. The compounds were serially diluted 2-fold in DMSO over a range of 22 concentration points. Recombinant human KIF18A (1-467His-tagged) protein was expressed using a baculovirus system. Concentrations of KIF18A protein, microtubules, and ATP in the reaction were optimized for a standardized homogenous enzyme assay using an ADP-Glo kinase/ATPase assay kit. A reaction buffer [(15 mM Tris, pH 7.5), 10 mM MgCl2, 0.01% PluronicF-68, 1 μM paclitaxel, and 30 μg/mL pig microtubules] was prepared. The compounds and KIF18A protein (30 nM) were added to the prepared reaction buffer, and the reaction mixture was incubated at room temperature for 15 min, followed by addition of ATP (Km, 75 μM). The resulting reaction mixture was incubated at room temperature for another 15 min. 5 μL of ADP-Glo reagent and 2.5 μL of the reaction mixture were mixed and the resulting mixture was incubated at room temperature for 40 min. 10 μL of ADP-Glo detection reagent was added and the mixture was incubated at room temperature for 40 min. Luminescence was measured using a microplate reader and compared with that of the DMSO group, and then the inhibition percentages and IC50 values of the compounds were calculated.
In general, IC50 refers to the concentration that gives 50% inhibition. As for `C[C@@H]1CN(c2nc(NC(=O)c3ccc(S(=O)(=O)N[C@@H](C)CO)cc3N3CCC4(CC3)CC4)cc3ccoc23)CCO1` [Compound 223], the IC50 was at most 100 nM.

For `Cn1ccc2cc(C(=O)Nc3ccc(S(=O)(=O)NCCO)cc3N3CCC4(CC3)CC4)nc(N3CCC4(CC4)C3)c21` [Compound 502], the IC50 is at most 100 nM. As for `O=C(Nc1ccc(NS(=O)(=O)CCO)cc1N1CCC2(CC1)CC2)c1cc2c(c(OCCC(F)(F)F)n1)OCC2` [Compound 101], the figure is at most 100 nM; as for `C[C@H]1CN(c2cc(NC(=O)c3ccc(S(=O)(=O)NCCO)cc3N3CCC4(CC3)CC4)cc3ccn(C)c23)CCO1` [Compound 403], at most 100 nM. Regarding `Cn1ccc2cc(C(=O)Nc3ccc(S(=O)(=O)NCCO)cc3N3CCC4(CC3)CC4)cc(N3CCC(F)(F)CC3)c21` [Compound 433], the IC50 is at most 100 nM. As for `C[C@H](CO)S(=O)(=O)Nc1ccc(C(=O)Nc2cc3c(c(N4CCC(F)(F)CC4)n2)OCC3)c(N2CCC3(CC2)CC3)c1` [Compound 78], the figure is at most 100 nM. The figure for `C[C@@H]1CN(c2nc(C(=O)Nc3ccc(NS(=O)(=O)[C@H](C)CO)cc3N3CCC4(CC3)CC4)cc3c2OCC3)CCO1` [Compound 112] is at most 100 nM.

Turning to `C[C@@H]1CN(c2cc(NC(=O)c3ccc(NS(=O)(=O)[C@H](C)CO)cc3N3CCC4(CC3)CC4)cc3ccn(C)c23)CCO1` [Compound 400], the IC50 was at most 100 nM.

In the case of `CN1CCc2cc(C(=O)Nc3ccc(S(=O)(=O)NCCO)cc3N3CCC4(CC3)CC4)nc(N3CCC(F)CC3)c21` [Compound 377], the IC50 was at most 100 nM. As for `C[C@@H]1CN(c2cc(C(=O)Nc3ccc(NS(=O)(=O)[C@H](C)CO)cc3N3CCC4(CC3)CC4)cc3c2N(C)CC3)CCO1` [Compound 304], the figure is at most 100 nM. Consider `CN1CCc2cc(C(=O)Nc3ccc(S(=O)(=O)NCCO)cc3N3CCC4(CC3)CC4)nc(N3CCC4(CC4)C3)c21` [Compound 374], for which the IC50 was at most 100 nM. The figure for `O=C(Nc1ccc(NS(=O)(=O)CCO)cc1N1CCC2(CC1)CC2)c1cc(N2CCC3(CC3)C2)c2occc2c1` [Compound 166] is at most 100 nM; for `CN1CCc2cc(C(=O)Nc3ccc(S(=O)(=O)NCCO)cc3N3CCC4(CC3)CC4)cc(N3CCC(F)(F)CC3)c21` [Compound 305] it is at most 100 nM.

For `C[C@H](CO)NS(=O)(=O)c1ccc(NC(=O)c2cc3ccn(C)c3c(N3CCC(F)(F)CC3)n2)c(N2CCC3(CC2)CC3)c1` [Compound 510], the IC50 is at most 100 nM. As for `O=C(Nc1ccc(S(=O)(=O)NCCO)cc1N1CCC2(CC1)CC2)c1cc2c(c(N3CCOCC3)n1)OCC2` [Compound 124], the figure is at most 100 nM. As for `C[C@@H](CO)S(=O)(=O)Nc1ccc(C(=O)Nc2cc(N3CCC(F)(F)CC3)c3c(ccn3C)c2)c(N2CCC3(CC2)CC3)c1` [Compound 397], the figure is at most 100 nM; as for `O=C(Nc1ccc(NS(=O)(=O)CCO)cc1N1CCC2(CC1)CC2)c1cc2c(c(OC3CCC3)n1)OCC2` [Compound 103], at most 100 nM. The figure for `O=C(Nc1cc2ccoc2c(N2CCOCC2)n1)c1ccc(S(=O)(=O)NCCO)cc1N1CCC2(CC1)CC2` [Compound 220] is at most 100 nM; for `CC(C)(CO)Nc1nc(C(=O)Nc2ccc(NS(=O)(=O)CCO)cc2N2CCC3(CC2)CC3)cc2c1OCC2` [Compound 107] it is at most 100 nM; for `CN1CCc2cc(NC(=O)c3ccc(NS(=O)(=O)CCO)cc3N3CCC4(CC3)CC4)cc(N3CCOCC3)c21` [Compound 268] it is at most 100 nM.

For the molecule `CN1CCc2cc(NC(=O)c3ccc(NS(=O)(=O)CCO)cc3N3CCC4(CC3)CC4)cc(OC3CCC3)c21` [Compound 263], the IC50 is at most 100 nM.

`CN1CCc2cc(C(=O)Nc3ccc(NS(=O)(=O)CCO)cc3N3CCC4(CC3)CC4)nc(N3CC(F)(F)C3)c21` [Compound 356]: the IC50 is at most 100 nM. As to `CN1CCc2cc(NC(=O)c3ccc(NS(=O)(=O)CCO)cc3N3CCC4(CC3)CC4)cc(N3CCC(C)(F)C3)c21` (centres unmarked) [Compound 264], the IC50 is at most 100 nM.

`Cn1ccc2cc(C(=O)Nc3ccc(NS(=O)(=O)CCO)cc3N3CCC4(CC3)CC4)nc(N3CCC4(CC4)C3)c21` [Compound 486]: the IC50 is at most 100 nM. The figure for `CN1CCc2cc(NC(=O)c3ccc(NS(=O)(=O)CCO)cc3N3CCC4(CC3)CC4)cc(OCCC(F)(F)F)c21` [Compound 261] is at most 100 nM; for `Cn1ccc2cc(C(=O)Nc3ccc(S(=O)(=O)NCCO)cc3N3CCC4(CC3)CC4)cc(N3CCOCC3)c21` [Compound 444] it is at most 100 nM. The figure for `Cn1ccc2cc(NC(=O)c3ccc(NS(=O)(=O)CCO)cc3N3CCC4(CC3)CC4)nc(N3CC4CC4C3)c21` (centres unmarked) [Compound 458] is at most 100 nM; for `C[C@@H](CO)NS(=O)(=O)c1ccc(C(=O)Nc2cc(N3CCC(F)(F)CC3)c3occc3c2)c(N2CCC3(CC2)CC3)c1` [Compound 157] it is at most 100 nM. The figure for `Cn1ccc2cc(C(=O)Nc3ccc(NS(=O)(=O)CCO)cc3N3CCC4(CC3)CC4)cc(N3CCC(F)(F)CC3)c21` [Compound 417] is at most 100 nM; for `O=C(Nc1cc(N2CCC(F)CC2)c2occc2c1)c1ccc(S(=O)(=O)NCCO)cc1N1CCC2(CC1)CC2` [Compound 153] it is at most 100 nM; for `O=C(Nc1cc2ccoc2c(N2CCC(F)(F)CC2)n1)c1ccc(S(=O)(=O)NCCO)cc1N1CCC2(CC1)CC2` [Compound 209] it is at most 100 nM. For the molecule `Cn1ccc2cc(NC(=O)c3ccc(NS(=O)(=O)CCO)cc3N3CCC4(CC3)CC4)cc(NC(C)(C)CO)c21` [Compound 395], the IC50 is at most 100 nM. As for `C[C@H](CO)NS(=O)(=O)c1ccc(NC(=O)c2cc3c(c(N4CCO[C@H](C)C4)n2)OCC3)c(N2CCC3(CC2)CC3)c1` [Compound 128], the figure is at most 100 nM. As for `CN1CCc2cc(C(=O)Nc3ccc(S(=O)(=O)NCCO)cc3N3CCC4(CC3)CC4)cc(N3CCOCC3)c21` [Compound 316], the figure is at most 100 nM. The figure for `C[C@@H]1CN(c2nc(NC(=O)c3ccc(NS(=O)(=O)[C@H](C)CO)cc3N3CCC4(CC3)CC4)cc3ccoc23)CCO1` [Compound 208] is at most 100 nM; for `O=C(Nc1cc2ncsc2c(N2CCC(F)(F)CC2)n1)c1ccc(NS(=O)(=O)CCO)cc1N1CCC2(CC1)CC2` [Compound 516] it is at most 100 nM.

As to `CN1CCc2cc(NC(=O)c3ccc(S(=O)(=O)NCCO)cc3N3CCC4(CC3)CC4)nc(N3CCC(F)(F)CC3)c21` [Compound 337], the IC50 is at most 100 nM.

As for `C[C@@H]1CN(c2nc(C(=O)Nc3ccc(NS(=O)(=O)[C@H](C)CO)cc3N3CCC4(CC3)CC4)cc3ccn(C)c23)CCO1` [Compound 496], the IC50 is at most 100 nM. As for `CN1CCc2cc(NC(=O)c3ccc(NS(=O)(=O)CCO)cc3N3CCC4(CC3)CC4)nc(OCCC(F)(F)F)c21` [Compound 325], the figure is at most 100 nM. As for `CC(C)(CO)Nc1cc(NC(=O)c2ccc(S(=O)(=O)NCCO)cc2N2CCC3(CC2)CC3)cc2ccoc12` [Compound 155], the figure is at most 100 nM.

As for `CC(C)(CO)Nc1nc(NC(=O)c2ccc(S(=O)(=O)NCCO)cc2N2CCC3(CC2)CC3)cc2ccoc12` [Compound 219], the IC50 is at most 100 nM. Take `O=C(Nc1cc2c(c(N3CCC(F)(F)CC3)n1)OCCC2)c1ccc(NS(=O)(=O)CCO)cc1N1CCC2(CC1)CC2` [Compound 540]: the IC50 was at most 100 nM.

`CN1CCc2cc(NC(=O)c3ccc(NS(=O)(=O)CCO)cc3N3CCC4(CC3)CC4)nc(N3CCC(F)CC3)c21` [Compound 329]: the IC50 was at most 100 nM. As for `O=C(Nc1cc2ccoc2c(N2CC(F)(F)C2)n1)c1ccc(NS(=O)(=O)CCO)cc1N1CCC2(CC1)CC2` [Compound 196], the figure is at most 100 nM; as for `O=C(Nc1cc2c(c(N3CCC(F)(F)CC3)c1)OCCO2)c1ccc(NS(=O)(=O)CCO)cc1N1CCC2(CC1)CC2` [Compound 543], at most 100 nM. The figure for `C[C@@H]1CN(c2cc(C(=O)Nc3ccc(S(=O)(=O)N[C@@H](C)CO)cc3N3CCC4(CC3)CC4)cc3c2N(C)CC3)CCO1` [Compound 319] is at most 100 nM. As for `C[C@@H](CO)NS(=O)(=O)c1ccc(NC(=O)c2cc3ccoc3c(N3CCC(F)(F)CC3)n2)c(N2CCC3(CC2)CC3)c1` [Compound 253], the figure is at most 100 nM; as for `CN1CCc2cc(C(=O)Nc3ccc(NS(=O)(=O)CCO)cc3N3CCC4(CC3)CC4)cc(N3CCC4(CC4)C3)c21` [Compound 294], at most 100 nM. Regarding `C[C@H](CO)NS(=O)(=O)c1ccc(C(=O)Nc2cc3ccn(C)c3c(N3CCC(F)(F)CC3)n2)c(N2CCC3(CC2)CC3)c1` [Compound 478], the IC50 is at most 100 nM. The figure for `CN1CCc2cc(C(=O)Nc3ccc(S(=O)(=O)NCCO)cc3N3CCC4(CC3)CC4)nc(N3CCC(F)(F)CC3)c21` [Compound 369] is at most 100 nM; for `C[C@H]1CN(c2cc(C(=O)Nc3ccc(S(=O)(=O)NCCO)cc3N3CCC4(CC3)CC4)cc3c2OCC3)CCO1` [Compound 51] it is at most 100 nM. For the molecule `C[C@H](CO)S(=O)(=O)Nc1ccc(NC(=O)c2cc(N3CCC(F)(F)CC3)c3occc3c2)c(N2CCC3(CC2)CC3)c1` [Compound 174], the IC50 is at most 100 nM. The figure for `C[C@@H](CO)S(=O)(=O)Nc1ccc(NC(=O)c2cc3c(c(N4CCC(F)(F)CC4)c2)OCC3)c(N2CCC3(CC2)CC3)c1` [Compound 45] is at most 100 nM.
